# Test results from patent publication US20190231841A1, “CENCHRUS CILIARIS L. AS AN ANTICANCER AGENT” (KING SAUD UNIVERSITY, priority 2018, published 2019).
# Counter-ions that a name gives are not always drawn.
# Columns and labels:
# Type in all cases: cell-based
# [1] = system: MCF-7 (Breast carcinoma); assay: MTT cytotoxicity assay, MCF-7; conditions: Homo sapiens, MCF7, 24 h incubation
# Experimental: (§1) The cell lines A-549 (Lung carcinoma), CACO (Colorectal carcinoma), HCT-116 (Colon carcinoma), Hela (Cervical carcinoma), HepG-2 (Hepatocellular carcinoma), and MCF-7 (Breast carcinoma) were obtained from the Regional Center for Mycology and Biotechnology, Al-Azhar University, Cairo, Egypt.
# (§2) The antitumor assay was carried out on the above cell lines as published by A Ooi et al., ‘A Guide to Transient Expression of Membrane Proteins in HEK-293 Cells for Functional Characterization”, Front. Physiol. 7:300, published online 19 Jul. 2016, for all of the extracts which have been obtained in section above (A, R, AL, APC, RPC, APB, RPB, AR &RR). Briefly, the cell lines were suspended in medium at a concentration of 5×10^4 cell/well in Corning® 96-well tissue culture plates and then incubated for 24 hr. The tested extracts were then added into 96-well plates (six replicates) to achieve seven concentrations for each extract. […] After incubation for 24 h, the numbers of viable cells were determined by the MTT assay method. […] Then, the optical density was measured at 590 nm with the microplate reader to determine the number of viable cells. The percentage of viability was calculated as: (ODt/ODc)×100%, where ODt is the mean optical density of wells treated with the tested sample and ODc is the mean optical density of untreated cells. […]
# [2] = system: HepG-2 (Hepatocellular carcinoma); assay: MTT cytotoxicity assay, HepG-2; conditions: Homo sapiens, HepG2, 24 h incubation
# Experimental: as §1, §2
# [3] = system: CACO (Colorectal carcinoma); assay: MTT cytotoxicity assay, CACO; conditions: 24 h incubation
# Experimental: as §1, §2
# [4] = system: HCT-116 (Colon carcinoma); assay: MTT cytotoxicity assay, HCT-116; conditions: Homo sapiens, 24 h incubation
# Experimental: as §1, §2
# [5] = system: A-549 (Lung carcinoma); assay: MTT cytotoxicity assay, A-549; conditions: Homo sapiens, A549, 24 h, 24 h incubation
# Experimental: as §1, §2
smiles,measurement,setting,value
CC[C@]1(O)C[C@@H]2CN(CCc3c([nH]c4ccccc34)[C@@](C(=O)OC)(c3cc4c(cc3OC)N(C)[C@H]3[C@@](O)(C(=O)OC)[C@H](OC(C)=O)[C@]5(CC)C=CCN6CC[C@]43[C@@H]65)C2)C1 [Vinblastine sulfate],IC50,[1],5.9 ± 0.4 µg/mL
same,IC50,[2],2.93 ± 0.3 µg/mL
same,IC50,[3]; 24 h,24.6 ± 0.7 µg/mL
same,IC50 CACO (Colorectal carcinoma),[3],30.3 ± 1.4 µg/mL
same,IC50,[4],3.5 ± 0.2 µg/mL
same,IC50,[5],30.3 ± 1.4 µg/mL
